In patent publication US6491894B1, “NGR receptor and methods of identifying tumor homing molecules that home to angiogenic vasculature using same” (The Burnham Institute, priority 1998, dated 2002):
Each block holds one compound with its values, some of them ahead of it. Where no end group is shown, it is not given here.

How the values were obtained:
CD13/APN [1] = molecular target: T1, CD13/APN (Homo sapiens, UniProt P15144); assay: Affinity chromatography of cell extracts on immobilized peptide; type: binding
T1 construct: Experiments were performed using HL-60 cell extracts because they are known to express CD13/APN; endogenous in cells; host or cells: HL-60 cells (extract)
Method: To further characterize the interaction of CD13/APN with the NGR peptide, affinity chromatography on the CNGRC peptide was performed. The column was prepared by coupling the CNGRC peptide to SEPHAROSE (Pharmacia; Piscataway N.J.). Elution was effected with soluble CNGRC peptide. […] Extracts of Molt-4 and MDA-MB-435 cells transfected with CD13/APN were also characterized by using affinity chromatography, with extracts of the mock transfected counterparts used as negative controls.
The fractions were also analyzed for CD13 enzymatic activity using AlapNA as the substrate.

CD13 = molecular target: T2, CD13 (Gallus gallus, UniProt O57579); assay: bFGF-induced angiogenesis in chicken chorioallantoic membrane (CAM); type: in vivo; conditions: topical, 3 days
T2 construct: CD13 is expressed in CAM angiogenic vasculature; from tissue; host or cells: chorioallantoic membrane of 10-day chicken embryos
T2 sequence (O57579 1-972): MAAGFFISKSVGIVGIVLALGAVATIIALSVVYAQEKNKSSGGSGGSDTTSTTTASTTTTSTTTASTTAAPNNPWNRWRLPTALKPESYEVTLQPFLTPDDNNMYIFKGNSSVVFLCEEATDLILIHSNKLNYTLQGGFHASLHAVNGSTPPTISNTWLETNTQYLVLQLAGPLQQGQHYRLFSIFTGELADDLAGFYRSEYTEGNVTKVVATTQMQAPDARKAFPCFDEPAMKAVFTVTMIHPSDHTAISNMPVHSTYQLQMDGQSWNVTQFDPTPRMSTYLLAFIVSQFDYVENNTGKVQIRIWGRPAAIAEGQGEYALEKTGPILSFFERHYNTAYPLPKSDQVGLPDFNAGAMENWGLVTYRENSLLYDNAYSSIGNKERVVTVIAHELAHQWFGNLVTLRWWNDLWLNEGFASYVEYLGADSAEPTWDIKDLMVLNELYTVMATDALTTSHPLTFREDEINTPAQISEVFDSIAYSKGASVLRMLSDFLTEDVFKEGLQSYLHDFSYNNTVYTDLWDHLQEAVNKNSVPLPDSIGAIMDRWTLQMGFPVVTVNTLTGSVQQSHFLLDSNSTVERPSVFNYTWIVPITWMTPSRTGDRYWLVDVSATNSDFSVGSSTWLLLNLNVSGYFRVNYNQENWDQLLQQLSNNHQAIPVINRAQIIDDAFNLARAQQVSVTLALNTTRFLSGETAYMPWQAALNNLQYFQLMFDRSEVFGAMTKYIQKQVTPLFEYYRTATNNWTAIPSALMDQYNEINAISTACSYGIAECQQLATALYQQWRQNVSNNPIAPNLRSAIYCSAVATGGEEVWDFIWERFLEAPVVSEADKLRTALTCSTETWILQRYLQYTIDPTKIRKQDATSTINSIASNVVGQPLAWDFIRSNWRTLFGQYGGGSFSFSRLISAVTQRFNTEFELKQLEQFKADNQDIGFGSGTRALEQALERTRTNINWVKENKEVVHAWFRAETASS
From the text: Various treatments were applied topically, and, after 3 days, the filters and surrounding CAMs were resected and fixed in formalin.
Each bar represents the mean number of vessels and standard errors from 8 CAMs on each group.

CD13/aminopeptidase N = CD13/aminopeptidase N (Homo sapiens, UniProt P15144); conditions: cited from earlier work
[2] = test system: MDA-MB-435 breast carcinoma; assay: Tumor therapy of mice bearing MDA-MB-435 breast carcinoma; type: in vivo, mouse
Method: Female 2-month old Balb c nu/nu mice (Harlan Sprague Dawley; San Diego Calif.) were used for these studies and were cared for according to the Burnham Institute animal facility guidelines. […] Tumors were allowed to grow to a size of about 1 cm^3 (about 5% of the mouse's body weight) before starting the treatment experiments, except for the toxicity experiments as discussed below.
Weekly doxorubicin/peptide conjugate or control treatments (5 μg/mouse/week of doxorubicin-equivalent) were administered intravenously. In some experiments, as indicated, a dose of 30 μg/mouse was administered every 3 weeks. […] As an additional control, in some experiments the tumor homing peptide was mixed with doxorubicin, without linking, and the mixture was administered to tumor bearing mice.
Mice were anesthetized with a tribromoethanol-based anesthetic mixture (AVERTIN; Papaioannou and Fox, Lab. Anim. 43:189-192 (1993)) before each treatment. Anesthetization facilitated the tail vein injections (final volume, 200 μl) and allowed precise serial three dimensional tumor size measurements. Tumor volume calculations were based on the equation for the volume of an ovaloid: V=4/3(nabc), where a, b, and c are ½ of the measured diameters in each of the three dimensions.
Briefly, mice with size-matched tumors (˜1000 mm^3) were randomized into four treatment groups (six animals per group): vehicle only, free doxorubicin, doxorubicin-control peptide, and doxorubicin-CNGRC (SEQ ID NO:8). Mice were treated at 5 μg/mouse/week of doxorubicin-equivalent, and the difference in tumor volumes between day 1 and day 28 determined (FIG. 11A).

[3] = test system: MDA-MB-435 human breast carcinoma cells; conditions: for cell killing when agents not removed: after 24 hr
Method: (SEQ ID NO:19; control) conjugate (0.1 to 10 μg/well of doxorubicin-equivalent) for either 30 min or overnight. Following incubation, the agents were removed by extensive washing with PBS, then fresh medium added and incubation was continued.

[4] = test system: MDA-MB-435 breast carcinoma; assay: Tumor therapy of mice bearing MDA-MB-435 breast carcinoma; type: in vivo; conditions: 5 μg/mouse/week doxorubicin-equivalent
CD13/APN [5] = molecular target: T1, CD13/APN; assay: Aminopeptidase enzymatic activity of immuno-isolated CD13 (Ala-pNA or Leu-pNA); type: biochemical; conditions: Kaposi's sarcoma tumor cell extracts
Method: Given that the NGR sequence closely resembles a reverse RGD sequence, NGR-containing phage were tested to determine whether they would bind to CD13/aminopeptidase (CD13/APN). Kaposi's sarcoma tumor cell octylglucoside extracts were used as a source of CD13/APN. Aminopeptidase enzymatic activity was measured in these extracts utilizing Ala-pNA or Leu-pNA as substrates by monitoring the absorbance of the samples at 405 nm (Look et al., supra (1989); Taylor, supra (1993); Amoscato et al., supra (1989), each of which is incorporated herein by reference).
The CD13 antibody alone had no aminopeptidase activity.

[6] = test system: MDA-MB-435 derived tumors; assay: In vivo targeting of phage to breast carcinoma xenografts (phage recovery); design: species or system mouse; inhibition of CGSLVRC phage tumor homing by soluble peptide: dose or concentration left out as unconfirmed; conditions: for reduction of the amount of phage in the tumor by coinjection of free peptide: 500 μg free peptide coinjected with RGD-4C phage; for inhibition of tumor homing of CNGRCVSGCAGRC (NGR) phage by co-injected soluble peptide: breast carcinoma xenografts; for inhibition of tumor homing of RGD-4C phage by co-injected soluble peptide: increasing amounts of peptide
Method: When the tumors attained a diameter of about 1 cm, phage expressing a specific RGD-containing peptide were administered to the tumor bearing mouse. Similar results to those discussed below also were obtained with nude mice bearing tumors formed by implantation of human melanoma C8161 cells or by implantation of mouse B16 melanoma cells.
1×10^9 phage expressing the RGD-containing peptide, RGD-4C ([…]; SEQ ID NO:1; see, Koivunen et al., supra, 1995) or control (insertless) phage were injected intravenously (iv) into the mice and allowed to circulate for 4 min. The mice then were snap frozen or perfused through the heart while under anesthesia, and various organs, including tumor, brain and kidney, were removed and the phage present in the organs was quantitated (see U.S. Pat. No. 5,622,699; Pasqualini and Ruoslahti, supra, 1996).
Phage displaying tumor homing peptides were recovered from breast carcinoma xenografts. […] The mean number of phage recovered from the tumor or control tissue (brain) and the standard error of the mean (SEM) from triplicate platings are shown in FIG. 1.
An insertless phage with a different selective marker (ampicillin instead of tetracycline) was co-injected with the NGR phage at the same input to assess specificity within the same tumor-bearing animal. The ratios were calculated using the number of co-injected control ampicillin-resistant phage recovered from the same tissues. The phage were quantitated from triplicate platings on tetracycline (the homing phage) or ampicillin (control phage) selective plates. Various additional control phage were injected separately into tumor-bearing mice. These controls included: fd-tet phage without insert; unselected phage library mixtures; phage selected and shown to home to other normal vascular beds; and phage displaying peptides that were unrelated to NGR. The RGD-4C ([…]; SEQ ID NO:1) phage served as a positive control.

human αv-integrins = conditions: cited from earlier work
B16B15b mouse melanoma = assay: In vivo panning against a melanoma tumor; conditions: 89 cloned phage recovered from B16B15b tumors, three rounds
Method: Mice bearing a melanoma were produced by implantation of B16B15b mouse melanoma cells, which produce highly vascularized tumors. B16B15b mouse melanoma cells were injected subcutaneously into the mammary fat pad of nude mice (2 months old) and tumors were allowed to grow until the diameter was about 1 cm. In vivo panning was performed as disclosed above. Approximately 1×10^12 transducing units of phage expressing the CX5C (SEQ ID NO:9), CX6C (SEQ ID NO:10) or CX7C (SEQ ID NO:11) library were injected, iv, and allowed to circulate for 4 min. Mice then were snap frozen in liquid nitrogen or perfused through the heart while under anesthesia, tumor tissue and brain (control organ) were removed, and phage were isolated as described above. Three rounds of in vivo panning were performed.
The amino acid sequences were determined for the inserts in 89 cloned phage recovered from the B16B15b tumors. The peptides expressed by these phage were represented by two predominant sequences, […] (SEQ ID NO:4; 52% of the clones sequenced) and WGTGLC (SEQ ID NO:18; 25% of the clones; see Table 2).

breast tumor = assay: Viability of tumor cells obtained from tumors of treated mice; type: in vivo, mouse; conditions: 30 μg equivalent iv, tumors removed five days after treatment
Method: In addition, the viability of tumor cells obtained from tumors of mice treated with a tumor homing peptide/doxorubicin conjugate was compared to that of tumors from mice treated with free doxorubicin. In these experiments, breast tumor bearing mice were size matched with regard to the tumors, then treated intravenously with 30 μg equivalent of doxorubicin/RGD-4C ([…]; SEQ ID NO:1) or of free doxorubicin. Five days after treatment, the mice were euthanized and the tumors were removed. The tumor pairs were weighed and ground and the cell suspensions were plated (2 g tumor tissue per 150 mm plate).
Cell numbers were determined at 24 hours and 7 days after plating. Viability of tumor cells from the tumors of mice receiving the doxorubicin/RGD-4C ([…]; SEQ ID NO:1) conjugate was about 3 fold less than cells from tumors of mice treated with the free doxorubicin.

[7] = Acute toxicity in mice bearing extremely large tumors; conditions: 200 μg/mouse, tumors about 25% of body weight
[8] = 5 μg/mouse/week doxorubicin-equivalent iv

T1 sequence (P15144 whole entry): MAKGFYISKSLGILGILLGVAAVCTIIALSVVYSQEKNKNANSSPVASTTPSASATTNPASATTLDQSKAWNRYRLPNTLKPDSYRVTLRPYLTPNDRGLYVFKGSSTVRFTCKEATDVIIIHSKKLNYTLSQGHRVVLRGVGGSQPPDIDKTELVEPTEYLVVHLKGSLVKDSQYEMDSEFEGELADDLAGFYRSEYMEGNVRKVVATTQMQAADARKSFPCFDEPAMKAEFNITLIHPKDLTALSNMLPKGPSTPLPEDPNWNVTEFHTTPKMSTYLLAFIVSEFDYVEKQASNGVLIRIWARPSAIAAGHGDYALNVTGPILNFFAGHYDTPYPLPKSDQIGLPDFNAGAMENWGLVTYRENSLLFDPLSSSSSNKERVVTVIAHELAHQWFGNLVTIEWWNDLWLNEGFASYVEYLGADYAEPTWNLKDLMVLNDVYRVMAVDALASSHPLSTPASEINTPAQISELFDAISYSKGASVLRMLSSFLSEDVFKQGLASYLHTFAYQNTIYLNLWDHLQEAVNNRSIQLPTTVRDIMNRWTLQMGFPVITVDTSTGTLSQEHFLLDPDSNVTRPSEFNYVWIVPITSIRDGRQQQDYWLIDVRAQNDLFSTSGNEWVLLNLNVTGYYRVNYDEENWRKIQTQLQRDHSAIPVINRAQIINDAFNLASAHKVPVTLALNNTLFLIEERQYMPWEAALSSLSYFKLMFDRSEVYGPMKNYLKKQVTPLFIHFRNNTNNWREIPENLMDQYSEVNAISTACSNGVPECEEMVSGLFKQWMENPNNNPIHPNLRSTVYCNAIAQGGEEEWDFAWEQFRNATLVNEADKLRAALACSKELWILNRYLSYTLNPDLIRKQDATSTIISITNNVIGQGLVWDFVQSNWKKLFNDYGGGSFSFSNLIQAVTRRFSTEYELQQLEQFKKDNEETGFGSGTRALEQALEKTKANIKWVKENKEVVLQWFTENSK
Sequence of CD13/aminopeptidase N (P15144 whole entry): as above

- CD13/APN obtained by affinity chromatography on immobilized peptide (CD13/APN [1]): yielded no CD13/APN
- elution of CD13/APN from the CNGRC column by soluble peptide (CD13/APN [1]; Molt-4/CD13, MDA-MB-435/CD13 or HL-60 cell extracts): did not elute any activity
Compound: O=c1[nH]cc(F)c(=O)[nH]1 [CARAC]

Compound: CCCCC[C@H](CC(=O)NO)C(=O)N[C@H](C(=O)N1CCC[C@H]1CO)C(C)C [actinonin]
- effect on bFGF-induced angiogenesis in CAM (CD13): suppress bFGF-induced angiogenesis
- block of cell-surface CD13/aminopeptidase N enzymatic activity (CD13/aminopeptidase N): potently blocked

Compound: COc1cccc2c1C(=O)c1c(O)c3c(c(O)c1C2=O)C[C@@](O)(C(=O)CO)C[C@@H]3O[C@H]1C[C@H](N)[C@H](O)[C@H](C)O1 [doxorubicin, reference compound]
- effect on tumor growth ([2]; relative to vehicle alone): essentially no effect on tumor growth
- cell killing when agents not removed [3]: cells were killed
- gross examination of tumors (skin ulceration and tumor necrosis) [4]: no such signs were observed

- inhibition of aminopeptidase activity captured by CD13 antibody (CD13/APN [5]): inhibited the activity
Compound: c1cnc2c(c1)ccc1cccnc12 [o-phenanthroline]
- block of cell-surface CD13/aminopeptidase N enzymatic activity (CD13/aminopeptidase N): potently blocked

Compound: ACDCRGDCFCG
- reduction of the amount of phage in the tumor by coinjection of free peptide [6]: about tenfold

Compound: CDCRGDCFC [RGD-4C]
- inhibition of tumor homing of CNGRCVSGCAGRC (NGR) phage by co-injected soluble peptide [6]: partially inhibited
- inhibition of tumor homing of RGD-4C phage by co-injected soluble peptide [6]: readily inhibited
- potency in inhibiting NGR phage tumor homing, less potent than the CNGRC peptide ([6]; mouse, in vivo): 5-10 times
- binding to αv-integrins (human αv-integrins): binds to human αv-integrins

Compound: CGSLVRC
- inhibition of CGSLVRC phage tumor homing by soluble peptide [6]: inhibition of tumor homing

Compound: CLSGSLSC
- share of the clones sequenced (B16B15b mouse melanoma): 52%

Compound: GACVFSIAHECGA (not fully specified (bridges); also: cyclic, ring type not given here) [unrelated cyclic control peptide, reference compound]
- inhibition of tumor homing of CNGRCVSGCAGRC (NGR) phage by co-injected soluble peptide [6]: had no effect
- inhibition of tumor homing of RGD-4C phage by co-injected soluble peptide [6]: had no effect

Compound: GRGESP [reference compound]
- reduction of the amount of phage in the tumor by coinjection of free peptide [6]: essentially had no effect

Compound: WGTGLC
- share of the clones sequenced (B16B15b mouse melanoma): 25%

Compound: doxorubicin/RGD-4C: doxorubicin conjugated to peptide CDCRGDCFC (SEQ ID NO:1) (cysteine pairing not given here; also: doxorubicin conjugate)
- viability of tumor cells, less than cells from tumors of mice treated with free doxorubicin (breast tumor): about 3 fold
- pulmonary metastasis [2, 8]: a lower incidence of pulmonary metastasis and fewer metastatic lesions
- spread to regional lymph nodes [2, 8]: less spread to regional lymph nodes
- survival [2, 8]: survived beyond the time when the doxorubicin control and conjugate control mice had died
- tumor size versus doxorubicin control [2, 8]: significantly smaller tumors
- time alive after control mice had died ([2]; dose escalation, 30 μg/mouse every three weeks for three cycles): more than 6 months
- histopathological analysis of tumor vasculature ([2]; mouse, in vivo): pronounced destruction of the vasculature
- cell death after 30 min exposure ([3]; 0.1 to 10 μg/well doxorubicin-equivalent, agents removed after 30 min, survival at 24 hours): cell death was present
- cell killing when agents not removed [3]: cells were killed
- gross examination of tumors (skin ulceration and tumor necrosis) [4]: marked skin ulceration and tumor necrosis
- survival after acute dose [7]: survived for longer than one week
